Some test systems named below: CCRF-CEM leukemia; HT29 colon; KM12 colon; M14 melanoma; MOLT-4 leukemia; NCI-H460 lung; NCI-H522 lung; PC-3 prostate; T-47D breast; BT-549 breast.
What all share (assay): NCI-60 cell line screen, 48 h

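How tested: cells in 96-well plates exposed to compound for 48 hours at five concentrations. The concentration for 50% growth inhibition is given as GI50. TGI: total growth inhibition.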

`NS(=O)(=O)c1ccc(-n2nc3c(c2-c2ccc(Cl)cc2)Cc2ccccc2-3)cc1`: the GI50 with CCRF-CEM leukemia was 2.96 µM; in the assay with HT29 colon it was 15.4 µM; in the assay with KM12 colon, 19.9 µM; in the assay with M14 melanoma, 13.1 µM; in the assay with MOLT-4 leukemia it was 5.51 µM; in the assay with NCI-H460 lung it was 32.1 µM. The GI50 in the assay on NCI-H522 lung is 5.63 µM; in the assay on PC-3 prostate, 14 µM; in the assay on T-47D breast, 91 µM. Besides, the TGI in the assay with CCRF-CEM leukemia is 9.08 µM; in the assay on HT29 colon, 98.1 µM; with KM12 colon, 52.8 µM; in the assay on M14 melanoma, 31.5 µM; in the assay on MOLT-4 leukemia, 23.1 µM; with NCI-H460 lung it was greater than 100 µM. Also, the TGI with NCI-H522 lung was 19.3 µM; in the assay with PC-3 prostate it was 27.9 µM; in the assay on T-47D breast, greater than 100 µM.
Turning to `C=CCNc1nc2c(s1)C(=O)c1ccccc1C2=O`, the TGI in the assay on HT29 colon came to 50.2 µM; in the assay on KM12 colon, 28.1 µM; in the assay on M14 melanoma, 16.7 µM; in the assay on MOLT-4 leukemia, 10.6 µM; in the assay on NCI-H460 lung, 28.5 µM; in the assay on NCI-H522 lung, 21.4 µM. For the same compound, the figures for the TGI in the assay on PC-3 prostate and in the assay on T-47D breast were 30.3 µM and 68.3 µM, respectively.
On to `O=S(=O)(NC1=NCCN1C(=S)SN1CCn2c1nsc2=S)c1cccc2ccccc12`, for which the GI50 in the assay on CCRF-CEM leukemia was 2.5 µM; in the assay on HT29 colon it was 31.4 µM; with KM12 colon, 17.3 µM; with M14 melanoma, 24.6 µM; in the assay on MOLT-4 leukemia it was 16.5 µM; in the assay with NCI-H460 lung, 20.4 µM. Further, the GI50 with NCI-H522 lung is 12.2 µM; with PC-3 prostate it was 29.2 µM; with T-47D breast, 20.2 µM. Also, the TGI in the assay with CCRF-CEM leukemia was greater than 100 µM; in the assay on HT29 colon, greater than 100 µM; in the assay on KM12 colon, 41.4 µM; in the assay with M14 melanoma it was greater than 100 µM; in the assay with MOLT-4 leukemia it was 60.3 µM; in the assay with NCI-H460 lung it was greater than 100 µM. Moreover, the TGI in the assay on NCI-H522 lung is 36.1 µM; in the assay on PC-3 prostate, greater than 100 µM; with T-47D breast it was greater than 100 µM.
For the compound `OCc1ccc(N2CCc3cccc(F)c3C2)cc1Cl`, the GI50 was 16.9 µM in the assay on BT-549 breast; 24.9 µM in the assay on CCRF-CEM leukemia; 0.0334 µM in the assay on HT29 colon; 15.7 µM with KM12 colon; 29.3 µM with M14 melanoma; 23 µM with MOLT-4 leukemia. Besides, the values for the GI50 with NCI-H460 lung, in the assay with NCI-H522 lung and in the assay with PC-3 prostate were less than 0.0194 µM, 13.4 µM and 16 µM, respectively. Besides, the TGI with BT-549 breast is 36.7 µM; with CCRF-CEM leukemia, 99.1 µM; in the assay on HT29 colon, 35.5 µM; with KM12 colon, 48.6 µM; in the assay on M14 melanoma, greater than 78.7 µM; in the assay on MOLT-4 leukemia it was 71 µM. Further, the values for the TGI in the assay with NCI-H460 lung, in the assay with NCI-H522 lung and in the assay on PC-3 prostate were 1.23 µM, 36.3 µM and 47.9 µM, respectively.
Regarding `O=C(O)c1ccc(CI)cc1`, the TGI worked out at 26.9 µM in the assay with CCRF-CEM leukemia; 37.9 µM in the assay on HT29 colon; 41.3 µM in the assay with M14 melanoma; 40.7 µM in the assay on MOLT-4 leukemia; 31.7 µM in the assay with NCI-H460 lung; 11.8 µM with NCI-H522 lung. Besides, the results for the TGI in the assay on PC-3 prostate and with T-47D breast were 30.3 µM and 48 µM, respectively.
Take `CC[n+]1oc(C(=O)c2ccc(Cl)cc2)c(-c2ccccc2)c1-c1ccccc1.[Cl][Fe]([Cl])([Cl])[Cl]`: the GI50 with CCRF-CEM leukemia is 14.8 µM; with HT29 colon, 41.8 µM; in the assay on KM12 colon it was 89.9 µM; in the assay with M14 melanoma it was 52.5 µM; in the assay with MOLT-4 leukemia, 47.2 µM; in the assay with NCI-H460 lung, 43.2 µM. Also, the GI50 is 31.4 µM in the assay with PC-3 prostate and 0.462 µM with T-47D breast. The TGI in the assay on CCRF-CEM leukemia is 39.4 µM; with HT29 colon, greater than 100 µM; with KM12 colon, greater than 100 µM; with M14 melanoma, greater than 100 µM; with MOLT-4 leukemia, greater than 100 µM; in the assay on NCI-H460 lung, greater than 100 µM. Further, the TGI in the assay on PC-3 prostate was greater than 100 µM; in the assay with T-47D breast, 35.1 µM.
As for `COc1ccc2c(=O)cc(-c3ccccc3)[nH]c2c1`, the GI50 with BT-549 breast was 0.56 µM; in the assay with CCRF-CEM leukemia, 1.48 µM; in the assay with HT29 colon, 0.379 µM; in the assay with KM12 colon it was 0.405 µM; in the assay on M14 melanoma it was 5.93 µM; in the assay on MOLT-4 leukemia, 1.25 µM. Besides, the values for the GI50 with NCI-H460 lung, in the assay with NCI-H522 lung and with PC-3 prostate were 0.397 µM, 0.698 µM and 0.389 µM, respectively. Also, the TGI was greater than 27.7 µM with BT-549 breast; greater than 100 µM in the assay on CCRF-CEM leukemia; greater than 100 µM in the assay on HT29 colon; greater than 100 µM with KM12 colon; greater than 100 µM in the assay on M14 melanoma; greater than 100 µM with MOLT-4 leukemia. For the same compound, the figures for the TGI in the assay on NCI-H460 lung, in the assay on NCI-H522 lung and in the assay with PC-3 prostate were greater than 42 µM, 14.2 µM and greater than 100 µM, respectively.
Consider `Cc1nc(N)nc2c1CCC(O)S2` (configuration not stated), for which the GI50 in the assay with CCRF-CEM leukemia is 4.29 µM; in the assay with HT29 colon, 4.24 µM; with KM12 colon, 5.46 µM; in the assay on M14 melanoma, 8.44 µM; in the assay with MOLT-4 leukemia it was 2.91 µM; in the assay with NCI-H460 lung, 3.86 µM. The figures for the GI50 in the assay with NCI-H522 lung, in the assay with PC-3 prostate and in the assay on T-47D breast were 17 µM, 3.52 µM and 5.25 µM, respectively. Further, the TGI with CCRF-CEM leukemia stood at 69.1 µM; with HT29 colon, 17.3 µM; in the assay with KM12 colon, 19.6 µM; in the assay on M14 melanoma, 31.6 µM; in the assay on MOLT-4 leukemia, 8.36 µM; in the assay with NCI-H460 lung, 15.3 µM. Besides, the TGI in the assay with NCI-H522 lung amounted to 34 µM; with PC-3 prostate, 44.7 µM; in the assay with T-47D breast, 30.2 µM.

The values above are taken from PubChem BioAssay (NCI).
